Measurements from US5266591A, “Ethanolamine benzoate compounds” (Adir et Compagnie, priority 1991, dated 1993).
Like-named read-outs stand apart in the source and are kept apart here.

Columns and labels:
[1] = tested on: LDL (low-density lipoproteins); experiment: In vitro LDL oxidation by monocytes; assay type: cell-based; conditions: for In vitro LDL oxidation by monocytes, activity: at 10^-4 M
Procedure: (§1) A comparative study between the product of Example 1 and the reference substances (benfluorex, dimethyl biguanide) with respect to in vitro LDL oxidation was carried out.

esters of cholesterol = experiment: Incorporation of oleate in the esters of cholesterol; assay type: cell-based; conditions: for inhibition at 10 µM: read-out: Incorporation of oleate in the esters of cholesterol
[2] = tested on: 52-week-old male SDCD rats; experiment: Chronic treatment per os of 52-week-old male SDCD rats (weight, insulinaemia, glycaemia, glucose tolerance, lipids); assay type: in vivo, rat; conditions: 14 days; for % weight change: 52-week-old male SDCD rats; for Basal insulinaemia % change / Cholesterol % change / Glucose tolerance K 10^-2 % change / Glycaemia % change / Triglyceride % change: vs control
Procedure: A. Study of the Effect of a Chronic Treatment Administered Per OS to 52-Week-Old Male SDCD Rats The tests are carried out on rats that have weight anomalies associated with hyperinsulism and hyperglyceridaemia. on the one hand the effect of a prolonged treatment with the product of Example 1 and the reference substances on those anomalies, and In this experiment, adult male SPRAGUE DAWLEY rats were used in groups of 5 to 12 animals. […]
a reduction in glucose tolerance, an increase in basal insulinaemia, and an increase in plasma lipids.
The housing (from 9 to 52 weeks) of these rats was effected in a chamber at a temperature regulated at from 21° to 22° C. which was subjected to a fixed cycle of light (from 7.30 to 19.30 hours) and darkness (from 19.30 to 7.30 hours). Their food consisted of a maintenance diet (UAR A 03); water and food were supplied "ad libitum", with the exception of the night-fasting preceding the tests, when the food was removed.
9 days before the beginning of the experiment (d-9), the rats are divided into groups by randomisation based on weight.
5 days before the beginning of the experiment (d-5) the rats are conditioned by administering a gum solution.
The first day of the experiment (d1), the products to be tested are administered to the rats at different doses twice per day. More precisely, the products are administered suspended in the gum between 9.00 and 10.00 hours and 16.00 and 17.00 hours for 14 days. The treated animals are weighed daily.
On day 15 the rats (fasted for 18 hours) are sacrificed by decapitation. The blood is immediately collected in a cupule. An amount (50 μl ) is transferred into 500 μl of uranyl acetate for determining the glycaemia. An amount of 3 ml is transferred into a tube containing a solution of heparin (30 μl per 1 ml of whole blood) and centrifuged to separate the plasma. Another amount of 300 μl is transferred to a tube containing 15 μl of a solution of EDTA/NaF for determining the lactates.

[3] = tested on: LDL (low-density lipoproteins); experiment: In vitro LDL oxidation by copper; assay type: biochemical
Procedure: as §1

conscious dogs = experiment: Hypotensive effect in conscious dogs (sphygmomanometer on the tail); assay type: in vivo; conditions: conscious dog, 5 mg/kg p.o., n = 4
Procedure: The arterial pressure was measured by external pressure band (sphygmomanometer) on the tail of the dog, before and after treatment with the product of Example 1 at a dose of 5 mg/kg p.o..

Compound | In vitro LDL oxidation by monocytes, activity [1] | % weight change ([2]; 1 mg/kg x2 per day p.o.) [%] | Basal insulinaemia % change ([2]; 1 mg/kg x2 per day p.o.) [%] | Cholesterol % change ([2]; 1 mg/kg x2 per day p.o.) [%] | Glucose tolerance K 10^-2 % change ([2]; 1 mg/kg x2 per day p.o.) | Glycaemia % change ([2]; 1 mg/kg x2 per day p.o.) | Triglyceride % change ([2]; 1 mg/kg x2 per day p.o.) [%] | % weight change ([2]; 2.5 mg/kg x2 per day p.o.) [%] | Basal insulinaemia % change ([2]; 2.5 mg/kg x2 per day p.o.) [%] | Cholesterol % change ([2]; 2.5 mg/kg x2 per day p.o.) [%] | Glucose tolerance K 10^-2 % change ([2]; 2.5 mg/kg x2 per day p.o.) | Glycaemia % change ([2]; 2.5 mg/kg x2 per day p.o.) [%] | Triglyceride % change ([2]; 2.5 mg/kg x2 per day p.o.) [%] | further results
CN(C)C(=N)NC(=N)N [Dimethyl biguanide] | inactive | – | – | – | – | – | – | – | – | – | – | – | – | Incorporation of oleate in the esters of cholesterol (esters of cholesterol; at 10^-5 M): inactive
C[C@@H](Cc1cccc(C(F)(F)F)c1)NCCOC(=O)c1ccc(CCNC(=O)CC(c2ccccc2)c2ccccc2)cc1 [Example 1, (S)-1-(m-trifluoromethylphenyl)-2-{β-{4-[2-(N-(3,3-diphenylpropionyl)amino)ethyl]benzoyloxy}ethylamino}propane] | – | -1.4 | -15 | 0 | +23% | +8% | -10 | -3 | -26 | 0 | +30% | 0 | -20 | IC50 [3]: 50 µM; IC50 ([1]; read-out: In vitro LDL oxidation by monocytes, IC50): 50 µM; inhibition at 10 µM (esters of cholesterol): 70%; Decrease in arterial pressure, diastolic AP (conscious dogs): -20 to -27 mmHg; Decrease in arterial pressure, systolic AP (conscious dogs): -15 to -22 mmHg
CC(Cc1cccc(C(F)(F)F)c1)NCCOC(=O)c1ccccc1 (stereo not shown) [Benfluorex] | inactive | -2 | -10 | -20 | +30% | -10% | -43 | -6 | -16 | -30 | +25% | -12 | -44 | In vitro LDL oxidation by copper, activity ([3]; at 10^-4 M): inactive; inhibition at 10 µM (esters of cholesterol; at 10^-5 M): 30%
